# Measurements: US10039828B2, “Compositions comprising salbutamol sulphate” (MEXICHEM AMANCO HOLDING S.A. DE C.V., priority 2011, dated 2018)
# Assay: apparent surfactant dissolution (solubility) in propellant, viewed with the naked eye
# Type: physicochemical
# Conditions: for Solubility of oleic acid in the propellant / Solubility of sorbitan monooleate in the propellant / Solubility of sorbitan trioleate in the propellant: ambient temperature (19.5-25.0° C.)
# Experimental: A number of experiments were conducted to investigate the solubility of various surfactants in R-134a and R-152a. The apparent surfactant dissolution in each propellant was studied at ambient temperature (19.5-25.0° C.) by adding a known quantity of surfactant to a plastic-coated, pressure-resistant, clear glass aerosol bottle. A continuous flow valve was then crimped onto the bottle. A total of 10 grams of each propellant was filled into each aerosol bottle such that the surfactant concentration ranged from 0 to 5% w/w. After addition of propellant, the contents were sonicated for 10 mins and viewed with the naked eye for dissolution.
compound,measurement,setting,value
CCCCCCCC/C=C\CCCCCCCC(=O)O [oleic acid],solubility in R-152a compared with R-134a,R-152a versus R-134a,much higher
same,solubility in R-152a compared with any other surfactant,"R-152a, versus the other surfactants tested",much higher
same,Solubility of oleic acid in the propellant,propellant R-134a,Up to 0.05 % w/w
same,Solubility of oleic acid in the propellant,propellant R-152a,Up to 2.5 % w/w
sorbitan monooleate,Solubility of sorbitan monooleate in the propellant,propellant R-134a,Up to 0.03 % w/w
same,Solubility of sorbitan monooleate in the propellant,propellant R-152a,Up to 0.05 % w/w
sorbitan trioleate,Solubility of sorbitan trioleate in the propellant,propellant R-134a,Up to 0.05 % w/w
same,Solubility of sorbitan trioleate in the propellant,propellant R-152a,Up to 0.05 % w/w
